The test system of one experiment is E. coli hemG strain. The experiment can be described thus: E. coli hemG growth assay (strain sensitivity). The experiment is classed as cell-based, Escherichia coli. The note with it: data not shown; probably impaired uptake or hydrolysis.
The target of another experiment is PPO2 wild-type (Amaranthus tuberculatus, UniProt Q0NZW9). The experiment can be described thus: in vitro inhibition assay, recombinant PPO2 enzyme. The experiment is classed as biochemical.
Experiment [1] addresses T1, PPO2 wild-type in Escherichia coli hemG (Amaranthus tuberculatus, UniProt Q0NZW9).
T1 sequence (Q0NZW9 31-534): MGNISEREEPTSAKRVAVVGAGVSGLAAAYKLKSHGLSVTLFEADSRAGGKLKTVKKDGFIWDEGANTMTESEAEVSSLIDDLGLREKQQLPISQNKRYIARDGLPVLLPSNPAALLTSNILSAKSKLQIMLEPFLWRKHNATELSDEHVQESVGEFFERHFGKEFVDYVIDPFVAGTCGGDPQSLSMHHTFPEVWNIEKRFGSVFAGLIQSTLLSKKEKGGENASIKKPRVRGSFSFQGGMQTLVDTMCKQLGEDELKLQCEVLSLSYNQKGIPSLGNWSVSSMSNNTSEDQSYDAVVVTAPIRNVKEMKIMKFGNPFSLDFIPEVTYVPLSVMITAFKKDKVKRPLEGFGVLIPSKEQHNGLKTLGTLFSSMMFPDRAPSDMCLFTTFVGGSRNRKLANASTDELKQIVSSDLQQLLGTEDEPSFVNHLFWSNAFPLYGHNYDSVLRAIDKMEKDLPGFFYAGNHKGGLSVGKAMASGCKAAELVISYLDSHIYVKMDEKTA
In kind it is cell-based. The note with it: read-out: IC50 (E. coli hemG growth).

Experiment [2] deals with T2, PPO2 ΔG210 in Escherichia coli hemG (Amaranthus tuberculatus, UniProt Q0NZW9, DEL210-210, cells depend on it).
T2 sequence (Q0NZW9 with tags, fused parts or gaps DEL210-210): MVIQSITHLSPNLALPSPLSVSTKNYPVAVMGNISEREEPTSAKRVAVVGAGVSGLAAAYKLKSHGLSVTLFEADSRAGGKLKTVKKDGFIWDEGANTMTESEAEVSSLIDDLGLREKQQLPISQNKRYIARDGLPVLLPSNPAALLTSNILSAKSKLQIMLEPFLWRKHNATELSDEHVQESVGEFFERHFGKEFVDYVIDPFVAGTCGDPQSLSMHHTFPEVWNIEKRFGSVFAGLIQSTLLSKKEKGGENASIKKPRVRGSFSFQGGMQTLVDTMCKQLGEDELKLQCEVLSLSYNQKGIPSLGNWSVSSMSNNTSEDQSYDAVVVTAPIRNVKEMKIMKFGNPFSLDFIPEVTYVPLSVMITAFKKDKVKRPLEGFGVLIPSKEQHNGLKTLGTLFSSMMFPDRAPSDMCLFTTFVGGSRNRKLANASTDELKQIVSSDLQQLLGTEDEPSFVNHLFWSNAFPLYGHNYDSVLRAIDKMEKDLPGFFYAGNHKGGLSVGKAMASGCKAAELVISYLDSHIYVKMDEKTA
The experiment is classed as cell-based. As to conditions: read-out: IC50 (E. coli hemG growth).

Experiment [3] concerns T1 35S::AMATU PPO2 R128M ΔG210 Arabidopsis lines. As to the kind of experiment: herbicide treatment of transgenic Arabidopsis T1 lines. The experiment is classed as in vivo, Arabidopsis thaliana. The note with it: foliar-applied 2×, 1×, 0.5× field dose, 7 days after treatment.
Experiment [4] concerns T1 35S::AMATU PPO2 R128A ΔG210 Arabidopsis lines. The description is as above. In kind it is in vivo, Arabidopsis thaliana. As to conditions: foliar-applied 2×, 1×, 0.5× field dose, 7 days after treatment.
The test system of experiment [5] is PPO1 enzyme carrying A212T mutation. The arrangement: method as in PMID 31788953. The note with it: cited from earlier work.
Experiment [6] relates to T1 35S::AMATU PPO2 R128T ΔG210 Arabidopsis lines. As to the kind of experiment: herbicide treatment of transgenic Arabidopsis T1 lines. The note with it: foliar-applied 2×, 1×, 0.5× field dose, 7 days after treatment. In kind it is in vivo, Arabidopsis thaliana.
In experiment [7] the test system is T1 35S::AMATU PPO2 R128N ΔG210 Arabidopsis lines. The description is as above. In kind it is in vivo, Arabidopsis thaliana. As to conditions: foliar-applied 2×, 1×, 0.5× field dose, 7 days after treatment.
Experiment [8] deals with T1 35S::AMATU PPO2 R128I ΔG210 Arabidopsis lines. Described as above. In kind it is in vivo, Arabidopsis thaliana. The note with it: foliar-applied 2×, 1×, 0.5× field dose, 7 days after treatment.
[9] abbreviates: Wild-type PPO2, recombinant protein activity in vitro.

The text below walks through data of publication PMC10092844, “Inhibition profile of trifludimoxazin towards PPO2 target site mutations” (Pest Management Science, 2022).

Structures are written as SMILES. Read-outs that look alike come from different tables or passages of the source.

Turning to `CS(=O)(=O)NC(=O)c1cc(Oc2ccc(C(F)(F)F)cc2Cl)ccc1[N+](=O)[O-]` [Fomesafen, fomesafen], in the experiment with E. coli hemG strain, the “sensitivity of E. coli hemG strain” value is “not sensitive”. Besides, the half-inhibitory concentration (IC50) (commonly the concentration at which inhibition is half-maximal) at PPO2 wild-type (setting [9]) was 7.13 nM.

With `CCOC(=O)C(C)OC(=O)c1cc(Oc2ccc(C(F)(F)F)cc2Cl)ccc1[N+](=O)[O-]` (stereo not shown) [Lactofen, lactofen], the IC50 in [1] came to 62.4 nM; in experiment [2], 357 nM; at PPO2 wild-type (setting [9]) it was 0.415 nM.

In the case of `CC(C)N(C)S(=O)(=O)NC(=O)c1cc(-n2c(=O)cc(C(F)(F)F)n(C)c2=O)c(F)cc1Cl` [Saflufenacil, saflufenacil], the “herbicide efficacy, visual assessment of plant growth” value in experiment [3] was “few T1 plants showed persistent growth with saflufenacil at the 2× and 0.5× rate”; in [4], “two T1 lines expressing R128A ΔG210 showed significant resistance at each applied rate”. For the same molecule, the 50% inhibitory concentration (IC50) in experiment [1] worked out at 31.9 nM; in experiment [2], 2120 nM; at PPO2 wild-type (read-out: IC50), 1.89 nM.

On to `C#CCN1C(=O)C(F)(F)Oc2cc(F)c(-n3c(=O)n(C)c(=S)n(C)c3=O)cc21` [Trifludimoxazin, trifludimoxazin], for which the “herbicide efficacy, visual assessment of plant growth” value was “reduced by both trifludimoxazin and saflufenacil at 1×” in [3]; “more reduced by trifludimoxazin than saflufenacil at each rate” in experiment [6]; “more reduced by trifludimoxazin than saflufenacil at each rate” in experiment [7]; “more controlled by trifludimoxazin than saflufenacil at all the used rates” in experiment [8]; “reduced plant growth at 2×, 1× and 0.5× the rate of all five T1 plants” in experiment [4]. Further, in experiment [5], the “inhibition of PPO1 A212T enzyme” value was “fully inhibit”. Besides, the half-inhibitory concentration (IC50) stood at 0.927 nM in experiment [1]; 1.18 nM in [2]; 0.245 nM at PPO2 wild-type (Wild-type PPO2, recombinant protein activity in vitro, read-out: IC50).
